Tests used:
Assay type in all cases: biochemical
Trypsin = experiment: Dose response assay for protease inhibitors: trypsin; settings: selectivity, trypsin over Factor XIa
Experimental: (§1) • Assay buffer: 20 mM Hepes, pH 7.4; 150 mM NaCl; 0.02% Tween 20 • Compounds: 10 mM stocks in DMSO • Substrate: 20 mM Glp-Pro-Arg-AMC, 25 mg/2.3 mL H2O (store at +4° C.) [Factor XIa, thrombin, and trypsin] • 20 mM Pro-Phe-Arg-AMC (Bachem I-1295), 25 mg/2.2 mL H2O • or Boc-Leu-Gly-Arg-AMC (Bachem I-1105), 25 mg/2.07 mL H2O • (store at +4° C.) [Factor Xa] • Enzyme: Factor XIa; 0.25 μM in 50% glycerol (20 μg/mL) • Trypsin; 0.2 μM in 50% glycerol (4.8 μg/mL) • Thrombin; 0.2 μM in 50% glycerol (7.34 μg/mL) • Factor Xa; 0.2 μM in 50% glycerol (9.2 μg/mL) • These stocks are aliquoted (˜100 μL/aliquot) and stored at −20° C. Methods: • 1. Dilute the substrate to 100 μM in assay buffer (30 μL/6 mL). The enzyme is diluted to 0.5 nM just prior to use (12 μL/6 mL for Factor XIa; 15 μL/6 mL for all of the rest.) • 2. Pipette 50 μL of substrate into each well of the 96 well (12×8) microtiter plate. (Column 1 is used as the 100% activity control and receives no compound, and Column 12 is the blank and receives no enzyme.) Add an additional 46 μL to column 2. • 3. Pipette 4 μL of each compound into the appropriate well in column 2 of the plate (unknowns assayed in triplicate, standard assayed in duplicate). The final compound concentration will be […] of the stock. • 4. Serially two-fold dilute the compound by mixing the sample in column 2, removing 50 μL to the next well (column 3), mix and remove to column 4, etc. until column 11. After mixing column 11, remove 50 μL and discard. • 5. Pipette 50 μL of buffer into column 12. Initiate the reaction by adding 50 μL of enzyme solution to each well of columns 1-11 as rapidly as possible. • 6. Read the plate in a spectrophotometer (SpectraMax) at 30° C., wherein each well is measured every 60 s for 30 min. For Factor Xa assays, each well is measured every 1 min for a total of 60 min. • 7. For Factor XIa assays, the compounds are assayed, in duplicate, at 3 different starting concentrations, 20, 2, and 0.2 μM; 1:10, 1:100, and 1:1000 dilution of 10 mM stock or at 2, 0.2, and 0.02 μM; 1:100, 1:1000, and 1:10,000 dilution of 10 mM stock. Data for each concentration are combined for graphing and data fitting. • 8. Data can be used both for estimation of IC50 and for estimation of Kon.

Thrombin = Thrombin (Homo sapiens (Human), UniProt P00734); experiment: Dose response assay for protease inhibitors: thrombin; settings: selectivity, thrombin over Factor XIa
Experimental: as §1

Factor XIa = Factor XIa (Homo sapiens (Human), UniProt P03951); experiment: Factor XIa enzyme inhibition assay (dose response, fluorogenic AMC substrate); settings: read-out: hFXIa IC50
Outline: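 Fluorogenic progress curves (30 min, 1-min reads, 30° C) were recorded for 0.25 nM FXIa cleaving 50 μM Glp-Pro-Arg-AMC in Hepes pH 7.4 buffer with NaCl and Tween 20. Compounds were serially two-fold diluted, and IC50 was fitted with a Hill equation.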

Factor Xa = Factor Xa (Homo sapiens (Human), UniProt P00742); experiment: Dose response assay for protease inhibitors: Factor Xa; settings: selectivity, Factor Xa over Factor XIa
Experimental: as §1

Sequence of Factor Xa (P00742 235-488): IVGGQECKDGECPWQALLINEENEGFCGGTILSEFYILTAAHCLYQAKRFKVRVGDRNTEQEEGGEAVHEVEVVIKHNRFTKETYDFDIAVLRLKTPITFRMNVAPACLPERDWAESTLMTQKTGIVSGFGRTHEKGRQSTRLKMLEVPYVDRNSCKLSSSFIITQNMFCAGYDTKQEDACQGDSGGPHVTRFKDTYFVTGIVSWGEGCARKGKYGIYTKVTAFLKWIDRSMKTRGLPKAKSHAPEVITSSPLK
Sequence of Factor Xa (P00742 41-179 partner): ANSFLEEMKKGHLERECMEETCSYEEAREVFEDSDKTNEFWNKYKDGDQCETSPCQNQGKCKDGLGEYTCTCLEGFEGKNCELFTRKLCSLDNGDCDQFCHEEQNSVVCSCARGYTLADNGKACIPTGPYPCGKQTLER
Sequence of Factor XIa (P03951 388-625): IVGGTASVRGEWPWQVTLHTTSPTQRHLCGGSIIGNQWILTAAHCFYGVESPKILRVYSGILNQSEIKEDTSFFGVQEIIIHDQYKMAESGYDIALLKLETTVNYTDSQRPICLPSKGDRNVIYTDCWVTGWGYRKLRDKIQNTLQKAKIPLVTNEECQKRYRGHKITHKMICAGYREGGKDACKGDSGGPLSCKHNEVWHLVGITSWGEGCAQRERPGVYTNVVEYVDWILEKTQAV
Sequence of Factor XIa (P03951 19-387 partner): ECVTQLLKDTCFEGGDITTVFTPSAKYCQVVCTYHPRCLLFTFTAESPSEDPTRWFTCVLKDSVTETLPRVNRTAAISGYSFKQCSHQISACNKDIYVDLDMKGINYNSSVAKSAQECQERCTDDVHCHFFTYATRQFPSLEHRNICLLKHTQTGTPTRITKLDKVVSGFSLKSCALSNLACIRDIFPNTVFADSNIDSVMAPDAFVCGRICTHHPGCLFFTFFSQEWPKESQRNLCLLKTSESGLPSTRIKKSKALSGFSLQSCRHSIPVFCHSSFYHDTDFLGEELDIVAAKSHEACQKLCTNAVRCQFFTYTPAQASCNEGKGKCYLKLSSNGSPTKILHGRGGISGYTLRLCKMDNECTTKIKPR

Molecule | Ratio: Trypsin/FXIa (Trypsin) | Ratio: Thrombin/FXIa (Thrombin) | IC50 (Factor XIa) [µM] | Ratio: FXa/FXIa (Factor Xa)
CN(C(=O)[C@@H]1[C@@H](Cc2ccnc(N)c2)C(=O)N1C(=O)NC(c1cccc(Cl)c1)C(F)(F)F)c1ccn(C)n1 (stereo in doubt) [Compound 1-38, (2S,3R)-3-((2-aminopyridin-4-yl)methyl)-N2-(1-methyl-1H-pyrazol-3-yl)-N1-((R)-1-(3-chlorophenyl)-2,2,2-trifluoroethyl)-N2-methyl-4-oxoazetidine-1,2-dicarboxamide] | G (“G” indicates 1-100) | G (“G” indicates 1-100) | < 0.01 | H (“H” indicates 101-1000)
CN(C(=O)[C@@H]1[C@@H](Cc2ccnc(N)c2)C(=O)N1C(=O)NC(C1CCCCC1)C(F)(F)F)c1nccn1C (stereo in doubt) [Compound 1-56, (2S,3R)-3-((2-aminopyridin-4-yl)methyl)-N2-(1-methyl-1H-imidazol-2-yl)-N1-((R)-1-cyclohexyl-2,2,2-trifluoroethyl)-N2-methyl-4-oxoazetidine-1,2-dicarboxamide] | G (“G” indicates 1-100) | H (“H” indicates 101-1000) | < 0.01 | I (“I” indicates > 500)
CC[C@@H](NC(=O)N1C(=O)[C@H](Cc2ccnc(N)c2)[C@H]1C(=O)N(C)c1cncs1)c1ccccc1 [Compound 1-12, (2S,3R)-3-((2-aminopyridin-4-yl)methyl)-N2-(5-thiazolyl)-N1-((R)-1-phenylpropyl)-N2-methyl-4-oxoazetidine-1,2-dicarboxamide] | G (“G” indicates 1-100) | H (“H” indicates 101-1000) | < 0.01 | H (“H” indicates 101-1000)
CCc1cccc([C@@H](CC)NC(=O)N2C(=O)[C@H](Cc3ccnc(N)c3)[C@H]2C(=O)N(C)c2cnn(C)c2)c1 [Compound 1-16, (2S,3R)-3-((2-aminopyridin-4-yl)methyl)-N2-(1-methyl-1H-pyrazol-4-yl)-N1-((R)-1-(3-ethylphenyl)propyl)-N2-methyl-4-oxoazetidine-1,2-dicarboxamide] | G (“G” indicates 1-100) | G (“G” indicates 1-100) | < 0.01 | H (“H” indicates 101-1000)
CC[C@@H](NC(=O)N1C(=O)[C@H](Cc2ccnc(N)c2)[C@H]1C(=O)N(C)c1cnsc1)c1ccccc1 [Compound 1-19, (2S,3R)-3-((2-aminopyridin-4-yl)methyl)-N2-(4-isothiazolyl)-N1-((R)-1-phenylpropyl)-N2-methyl-4-oxoazetidine-1,2-dicarboxamide] | G (“G” indicates 1-100) | G (“G” indicates 1-100) | < 0.01 | H (“H” indicates 101-1000)
CC[C@@H](NC(=O)N1C(=O)[C@H](Cc2ccnc(N)c2)[C@H]1C(=O)N(C)c1nccn1C)c1ccc(F)c(C)c1C [Compound 1-211, (2S,3R)-3-((2-aminopyridin-4-yl)methyl)-N2-(1-methyl-1H-imidazol-2-yl)-N1-((R)-1-(2,3-dimethyl-4-fluorophenyl)propyl)-N2-methyl-4-oxoazetidine-1,2-dicarboxamide] | – | – | < 0.01 | –
CC[C@@H](NC(=O)N1C(=O)[C@H](Cc2ccnc(N)c2)[C@H]1C(=O)N(C)c1nccn1C)c1ccc(F)c(F)c1C [Compound 1-212, (2S,3R)-3-((2-aminopyridin-4-yl)methyl)-N2-(1-methyl-1H-imidazol-2-yl)-N1-((R)-1-(3,4-difluoro-2-methylphenyl)propyl)-N2-methyl-4-oxoazetidine-1,2-dicarboxamide] | – | – | < 0.01 | –
CC[C@@H](NC(=O)N1C(=O)[C@H](Cc2ccnc(N)c2)[C@H]1C(=O)N(C)c1ccnn1C)c1cccc(F)c1F [Compound 1-213, (2S,3R)-3-((2-aminopyridin-4-yl)methyl)-N2-(1-methyl-1H-pyrazol-5-yl)-N1-((R)-1-(2,3-difluorophenyl)propyl)-N2-methyl-4-oxoazetidine-1,2-dicarboxamide] | – | – | < 0.01 | –
CC[C@@H](NC(=O)N1C(=O)[C@H](Cc2ccnc(N)c2)[C@H]1C(=O)N(C)c1ccnn1C)c1ccc(F)c(C)c1 [Compound 1-214, (2S,3R)-3-((2-aminopyridin-4-yl)methyl)-N2-(1-methyl-1H-pyrazol-5-yl)-N1-((R)-1-(4-fluoro-3-methylphenyl)propyl)-N2-methyl-4-oxoazetidine-1,2-dicarboxamide] | – | – | < 0.01 | –
CC[C@@H](NC(=O)N1C(=O)[C@H](Cc2ccnc(N)c2)[C@H]1C(=O)N(C)c1ccnn1C)c1ccc(F)c(F)c1 [Compound 1-215, (2S,3R)-3-((2-aminopyridin-4-yl)methyl)-N2-(1-methyl-1H-pyrazol-5-yl)-N1-((R)-1-(3,4-difluorophenyl)propyl)-N2-methyl-4-oxoazetidine-1,2-dicarboxamide] | – | – | < 0.01 | –
CC[C@@H](NC(=O)N1C(=O)[C@H](Cc2ccnc(N)c2)[C@H]1C(=O)N(C)c1ccnn1C)c1ccc(C)c(F)c1 [Compound 1-216, (2S,3R)-3-((2-aminopyridin-4-yl)methyl)-N2-(1-methyl-1H-pyrazol-5-yl)-N1-((R)-1-(3-fluoro-4-methylphenyl)propyl)-N2-methyl-4-oxoazetidine-1,2-dicarboxamide] | – | – | < 0.01 | –
CC[C@@H](NC(=O)N1C(=O)[C@H](Cc2ccnc(N)c2)[C@H]1C(=O)N(C)c1ccnn1C)c1cc(F)ccc1F [Compound 1-217, (2S,3R)-3-((2-aminopyridin-4-yl)methyl)-N2-(1-methyl-1H-pyrazol-5-yl)-N1-((R)-1-(2,5-difluorophenyl)propyl)-N2-methyl-4-oxoazetidine-1,2-dicarboxamide] | – | – | < 0.01 | –
CC[C@@H](NC(=O)N1C(=O)[C@H](Cc2ccnc(N)c2)[C@H]1C(=O)N(C)c1nccn1C)c1ccc(C)c(C)c1F [Compound 1-218, (2S,3R)-3-((2-aminopyridin-4-yl)methyl)-N2-(1-methyl-1H-imidazol-2-yl)-N1-((R)-1-(2-fluoro-3,4-dimethylphenyl)propyl)-N2-methyl-4-oxoazetidine-1,2-dicarboxamide] | – | – | < 0.01 | –
CC[C@@H](NC(=O)N1C(=O)[C@H](Cc2ccnc(N)c2)[C@H]1C(=O)N(C)c1ccnn1C)c1cc(F)ccc1C [Compound 1-219, (2S,3R)-3-((2-aminopyridin-4-yl)methyl)-N2-(1-methyl-1H-pyrazol-5-yl)-N1-((R)-1-(5-fluoro-2-methylphenyl)propyl)-N2-methyl-4-oxoazetidine-1,2-dicarboxamide] | – | – | < 0.01 | –
CC[C@H](NC(=O)N1C(=O)[C@H](Cc2ccnc(N)c2)[C@H]1C(=O)N(C)c1nccn1C)c1cccc(F)c1 [Compound 1-220, (2S,3R)-3-((2-aminopyridin-4-yl)methyl)-N2-(1-methyl-1H-imidazol-2-yl)-N1-((S)-1-(3-fluorophenyl)propyl)-N2-methyl-4-oxoazetidine-1,2-dicarboxamide] | – | – | 0.01 to 0.1 | –
CC[C@H](NC(=O)N1C(=O)[C@H](Cc2ccnc(N)c2)[C@H]1C(=O)N(C)c1nccn1C)c1cc(F)ccc1F [Compound 1-221, (2S,3R)-3-((2-aminopyridin-4-yl)methyl)-N2-(1-methyl-1H-imidazol-2-yl)-N1-((S)-1-(2,5-difuorophenyl)propyl)-N2-methyl-4-oxoazetidine-1,2-dicarboxamide] | – | – | 0.1 to 1 | –
(2S,3R)-3-((2-aminopyridin-4-yl)methyl)-N2-(1-methyl-1H-imidazol-2-yl)-N1-((R)-1-(3-chlorophenyl)propyl)-N1-methyl-N2-methyl-4-oxoazetidine-1,2-dicarboxamide [Compound 1-65] | – | – | 0.01 to 0.1 | –

Reference: US11691962B2 (eXIthera Pharmaceuticals, Inc., priority 2018, dated 2023)
